In the supplement of paper PMC10627819:

Key:
S. pneumoniae D39V [1] = assay: fitness (endpoint OD595 vs no drug) (fraction); higher = more growth
In short: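 Cultures at OD595 0.01 were dispensed into 384-well plates in TSB, LB Lennox or CY and incubated at 37 °C. Every 30 min for 14 h, OD595 was read and corrected by the first reading. Fitness is the optical density at entry into stationary phase relative to the robust mean of no-drug control wells, capped at 1.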

B. subtilis 168 = assay: Bliss interaction score (quartile over a dose matrix) (fitness difference); higher = more antagonism (negative = synergy)
In short: (§1)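 The Bliss score is observed minus expected fitness, where expected fitness is the product of the single-drug fitness values inferred from the combination data. Fitness is the OD595 at the onset of stationary phase over the plate's robust no-drug mean, capped at 1. Scores are summarised by quartiles over technical, biological and donor/recipient replicates.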

S. aureus DSM 20231 = assay: as above
In short: as §1

S. pneumoniae D39V [2] = assay: as above
In short: as §1

S. aureus Newman = assay: as above
In short: as §1
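Throughout, for Bliss interaction score (quartile over a dose matrix): first quartile when negative (synergy) and third quartile when positive (antagonism).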

CC1(C)S[C@@H]2[C@H](NC(=O)[C@H](N)c3ccc(O)cc3)C(=O)N2[C@H]1C(=O)O [Amoxicillin] + Clc1ccc(COC(Cn2ccnc2)c2ccc(Cl)cc2Cl)c(Cl)c1 [Miconazole]
fitness, S. pneumoniae D39V [1]
Details | partner 1.073 µg/mL | partner 1.25 µg/mL | partner 2.145 µg/mL | partner 2.5 µg/mL | partner 4.29 µg/mL | partner 5 µg/mL
first compound 0.0008 µg/mL | ≥ 1 | – | 0.881 | – | 0.882 | –
first compound 0.0015 µg/mL | ≥ 1 | 0.781 | 0.948 | 0.831 | 0.848 | 0.906
first compound 0.003 µg/mL | 0.994 | 0.736 | 0.778 | 0.814 | 0.739 | 0.849

fitness, S. pneumoniae D39V [1], one replicate
Details | partner 1.25 µg/mL | partner 2.5 µg/mL | partner 5 µg/mL
first compound 0.0008 µg/mL | 0.89 | 0.799 | 0.987
first compound 0.006 µg/mL | 0.355 | 0.264 | 0.395

Details | Bliss interaction score
B. subtilis 168 | 0.0957
S. aureus DSM 20231 | 0.0878
S. aureus Newman | 0.0536
S. pneumoniae D39V [2] | -0.0912

CC1(C)S[C@@H]2[C@H](NC(=O)[C@H](N)c3ccc(O)cc3)C(=O)N2[C@H]1C(=O)O [Amoxicillin] + O=C1CN(/N=C/c2ccc([N+](=O)[O-])o2)C(=O)N1 [Nitrofurantoin]
fitness, S. pneumoniae D39V [1]
Details | partner 1.285 µg/mL | partner 2 µg/mL | partner 2.57 µg/mL | partner 4 µg/mL | partner 8 µg/mL
first compound 0.0008 µg/mL | ≥ 1 | – | 0.957 | – | –
first compound 0.0015 µg/mL | 0.92 | 0.906 | 0.962 | 0.897 | 0.903
first compound 0.003 µg/mL | 0.909 | 0.859 | 0.922 | 0.868 | 0.875

fitness, S. pneumoniae D39V [1], one replicate
Details | first compound 0.0008 µg/mL | first compound 0.0015 µg/mL | first compound 0.003 µg/mL | first compound 0.006 µg/mL
partner 2 µg/mL | 0.93 | – | – | 0.43
partner 4 µg/mL | 0.979 | – | – | 0.433
partner 5.14 µg/mL | 0.928 | 0.921 | 0.857 | –
partner 8 µg/mL | 0.944 | – | – | 0.514

Details | Bliss interaction score
B. subtilis 168 | -0.206
S. aureus DSM 20231 | -0.0521
S. aureus Newman | 0.0375
S. pneumoniae D39V [2] | 0.11

CO/N=C(\C(=O)N[C@@H]1C(=O)N2C(C(=O)[O-])=C(C[N+]3(C)CCCC3)CS[C@H]12)c1csc(N)n1 [Cefepime] + CCC(C)C1C(=O)NC(=C)C(=O)NC(C(=O)NC(CSCC(C(=O)N1)NC(=O)/C(=C/C)/NC(=O)C(C(C)CC)N)C(=O)NC2C(SCC(NC(=O)CNC(=O)C3CCCN3C2=O)C(=O)NC(CCCCN)C(=O)NC4C(SCC(NC(=O)CNC(=O)C(NC(=O)C(NC(=O)C(NC(=O)CNC4=O)C)CC(C)C)CCSC)C(=O)NC(CC(=O)N)C(=O)NC(CCSC)C(=O)NC(CCCCN)C(=O)NC5C(SCC6C(=O)NC(C(=O)NC(CSC(C(C(=O)N6)NC(=O)C(NC5=O)C)C)C(=O)NC(CO)C(=O)NC(C(C)CC)C(=O)NC(CC7=CN=CN7)C(=O)NC(C(C)C)C(=O)NC(=C)C(=O)NC(CCCCN)C(=O)O)CC8=CN=CN8)C)C)C)CC(C)C [Nisin]
S. pneumoniae D39V [1], main component drawn
Details | fitness
first compound 0.007 µg/mL, partner 1.6 µg/mL | 0.0039
first compound 0.007 µg/mL, partner 3.2 µg/mL | 0.0024
first compound 0.007 µg/mL, partner 6.4 µg/mL | 0.0023
first compound 0.0078 µg/mL, partner 0.4275 µg/mL | 0.996
first compound 0.0078 µg/mL, partner 0.855 µg/mL | ≥ 1
first compound 0.0078 µg/mL, partner 1.71 µg/mL | 0.189
first compound 0.014 µg/mL, partner 1.6 µg/mL | 0.0058
first compound 0.014 µg/mL, partner 3.2 µg/mL | 0.0156
first compound 0.014 µg/mL, partner 6.4 µg/mL | 0.0123
first compound 0.0155 µg/mL, partner 0.4275 µg/mL | 0.996
first compound 0.0155 µg/mL, partner 0.855 µg/mL | 0.974
first compound 0.0155 µg/mL, partner 1.71 µg/mL | 0.126
first compound 0.028 µg/mL, partner 1.6 µg/mL | 0.0484
first compound 0.028 µg/mL, partner 3.2 µg/mL | 0.0251
first compound 0.028 µg/mL, partner 6.4 µg/mL | 0.0152
first compound 0.031 µg/mL, partner 1.71 µg/mL | 0.103

main component drawn
Details | Bliss interaction score
B. subtilis 168 | -0.0465
S. aureus DSM 20231 | -0.0745
S. aureus Newman | -0.0777
S. pneumoniae D39V [2] | -0.0526

CO/N=C(\C(=O)N[C@@H]1C(=O)N2C(C(=O)[O-])=C(C[N+]3(C)CCCC3)CS[C@H]12)c1csc(N)n1 [Cefepime] + CN(C)C(=O)C(CCN1CCC(O)(c2ccc(Cl)cc2)CC1)(c1ccccc1)c1ccccc1 [Loperamide]
S. pneumoniae D39V [1]
Details | fitness
first compound 0.007 µg/mL, partner 20 µg/mL | ≥ 1
first compound 0.007 µg/mL, partner 40 µg/mL | ≥ 1
first compound 0.007 µg/mL, partner 80 µg/mL | 0.913
first compound 0.0078 µg/mL, partner 17.14 µg/mL | ≥ 1
first compound 0.0078 µg/mL, partner 34.28 µg/mL | 0.969
first compound 0.014 µg/mL, partner 20 µg/mL | ≥ 1
first compound 0.014 µg/mL, partner 40 µg/mL | ≥ 1
first compound 0.0155 µg/mL, partner 17.14 µg/mL | 0.952
first compound 0.0155 µg/mL, partner 34.28 µg/mL | 0.854
first compound 0.028 µg/mL, partner 20 µg/mL | 0.911
first compound 0.028 µg/mL, partner 40 µg/mL | 0.841

S. pneumoniae D39V [1], partner 68.57 µg/mL, one replicate
Details | fitness
first compound 0.0078 µg/mL | ≥ 1
first compound 0.0155 µg/mL | ≥ 1
first compound 0.031 µg/mL | 0.48

Details | Bliss interaction score
B. subtilis 168 | -0.171
S. aureus DSM 20231 | 0.156
S. aureus Newman | 0.0533
S. pneumoniae D39V [2] | -0.0863
